In the NIST ThermoML archive (doi:10.1021/je050440b) one finds activity coefficient data, which are given here for 23 compounds.

Each structure is given as a SMILES string. ± gives the expanded uncertainty stated by the source.

The nature of the series: activity coefficient (dimensionless); of the first substance listed, at infinite dilution; xn = mol fraction of the nth substance listed. The following applies: Liquid, Chromatography, x1 = 0.

Consider `CCO` [ethanol] + CCCC[N+](C)(C)C.O=S(=O)([N-]S(=O)(=O)C(F)(F)F)C(F)(F)F, for which the activity coefficient (312.25 K) is 1.94 ± 0.13, the activity coefficient (322.85 K) came out at 1.73 ± 0.12, the activity coefficient (333.25 K) was found to be 1.57 ± 0.1 and the activity coefficient (343.65 K) worked out at 1.41 ± 0.09.
For `CCc1ccccc1` [ethylbenzene] + CCCC[N+](C)(C)C.O=S(=O)([N-]S(=O)(=O)C(F)(F)F)C(F)(F)F, the activity coefficient reads like this: (322.85 K) 2.79 ± 0.19; (333.25 K) 2.76 ± 0.19; (343.75 K) 2.65 ± 0.18; (354.15 K) 2.6 ± 0.18.
Regarding `CCCCCCCO` [heptan-1-ol] + CCCC[N+](C)(C)C.O=S(=O)([N-]S(=O)(=O)C(F)(F)F)C(F)(F)F, the activity coefficient by setting is: (354.05 K) 3.47 ± 0.24; (364.63 K) 3.11 ± 0.21; (375.05 K) 2.81 ± 0.19; (386.6 K) 2.58 ± 0.18.
For the compound `CCCCCCC=O` [heptanal] + CCCC[N+](C)(C)C.O=S(=O)([N-]S(=O)(=O)C(F)(F)F)C(F)(F)F, the activity coefficient reads like this: (354.15 K) 1.84 ± 0.12; (364.65 K) 1.73 ± 0.12; (374.95 K) 1.6 ± 0.11; (385.45 K) 1.48 ± 0.1; (395.95 K) 1.36 ± 0.09.
As to `CCCCCCC` [heptane] + CCCC[N+](C)(C)C.O=S(=O)([N-]S(=O)(=O)C(F)(F)F)C(F)(F)F, the activity coefficient (301.62 K) was 30.2 ± 2.1, the activity coefficient (312.15 K) turned out to be 27.7 ± 1.9, the activity coefficient (322.75 K) turned out to be 25.6 ± 1.8 and the activity coefficient (333.25 K) was 23.4 ± 1.6.
As for `C=CCCCC` [hex-1-ene] + CCCC[N+](C)(C)C.O=S(=O)([N-]S(=O)(=O)C(F)(F)F)C(F)(F)F, the activity coefficient (305.85 K) came to 10.2 ± 0.7; the activity coefficient (312.35 K) came out at 9.81 ± 0.67; the activity coefficient (322.55 K) stood at 9.46 ± 0.65; the activity coefficient (343.65 K) is 8.63 ± 0.59; the activity coefficient (364.55 K) was 7.93 ± 0.54.
With `CCCCCCO` [hexan-1-ol] + CCCC[N+](C)(C)C.O=S(=O)([N-]S(=O)(=O)C(F)(F)F)C(F)(F)F, the activity coefficient (343.65 K) was found to be 4.02 ± 0.27, the activity coefficient (354.05 K) turned out to be 3.58 ± 0.24, the activity coefficient (364.45 K) was found to be 3.24 ± 0.22 and the activity coefficient (385.55 K) is 2.67 ± 0.18.
On to `CCCCCC=O` [hexanal] + CCCC[N+](C)(C)C.O=S(=O)([N-]S(=O)(=O)C(F)(F)F)C(F)(F)F, for which the activity coefficient is, setting by setting: (322.75 K) 1.92 ± 0.13; (333.25 K) 1.9 ± 0.13; (343.55 K) 1.88 ± 0.13; (354.15 K) 1.85 ± 0.12; (364.65 K) 1.84 ± 0.12.
Turning to `CCCCCC` [hexane] + CCCC[N+](C)(C)C.O=S(=O)([N-]S(=O)(=O)C(F)(F)F)C(F)(F)F, the activity coefficient is, setting by setting: (301.85 K) 19.4 ± 1.3; (312.35 K) 18.1 ± 1.2; (322.85 K) 17.6 ± 1.2; (333.35 K) 16.3 ± 1.1.
Regarding `CO` [methanol] + CCCC[N+](C)(C)C.O=S(=O)([N-]S(=O)(=O)C(F)(F)F)C(F)(F)F, the activity coefficient runs as follows: (303.95 K) 1.55 ± 0.1; (312.05 K) 1.42 ± 0.09; (333.25 K) 1.15 ± 0.07; (343.65 K) 1.02 ± 0.06.
With `CCCC(=O)OC` [methyl butanoate] + CCCC[N+](C)(C)C.O=S(=O)([N-]S(=O)(=O)C(F)(F)F)C(F)(F)F, the activity coefficient stood at 1.31 ± 0.09 (311.65 K), 1.26 ± 0.08 (333.15 K) and 1.2 ± 0.08 (364.45 K).
As for `CCCCCCC(=O)OC` [methyl heptanoate] + CCCC[N+](C)(C)C.O=S(=O)([N-]S(=O)(=O)C(F)(F)F)C(F)(F)F, the activity coefficient came out at 3.18 ± 0.22 (343.55 K); 3.01 ± 0.2 (354.05 K); 2.81 ± 0.19 (364.55 K); 2.64 ± 0.18 (374.95 K); 2.43 ± 0.17 (385.45 K).
On to `CCCCCC(=O)OC` [methyl hexanoate] + CCCC[N+](C)(C)C.O=S(=O)([N-]S(=O)(=O)C(F)(F)F)C(F)(F)F, for which the activity coefficient was determined as 2.43 ± 0.17 (343.65 K), 2.33 ± 0.16 (354.05 K), 2.19 ± 0.15 (364.55 K) and 2.08 ± 0.14 (374.95 K).
`CCCCC(=O)OC` [methyl pentanoate] + CCCC[N+](C)(C)C.O=S(=O)([N-]S(=O)(=O)C(F)(F)F)C(F)(F)F: the activity coefficient came out at 1.66 ± 0.11 (322.75 K), 1.63 ± 0.11 (333.15 K), 1.44 ± 0.09 (364.55 K) and 1.33 ± 0.09 (374.95 K).
For `CCC(=O)OC` [methyl propanoate] + CCCC[N+](C)(C)C.O=S(=O)([N-]S(=O)(=O)C(F)(F)F)C(F)(F)F, the activity coefficient was found to be 0.94 ± 0.06 (311.65 K), 0.92 ± 0.06 (333.15 K) and 0.91 ± 0.06 (343.75 K).
As to `CCCCCCCCC` [nonane] + CCCC[N+](C)(C)C.O=S(=O)([N-]S(=O)(=O)C(F)(F)F)C(F)(F)F, the activity coefficient is 67.5 ± 4.6 (301.65 K); 59.8 ± 4.1 (312.15 K); 52.6 ± 3.6 (322.75 K); 47.3 ± 3.2 (333.25 K); 43.2 ± 3 (343.65 K); 39 ± 2.7 (354.05 K). For the same compound, the activity coefficient was determined as 36 ± 2.5 (364.55 K) and 32.3 ± 2.2 (374.95 K).
As to `C=CCCCCCC` [oct-1-ene] + CCCC[N+](C)(C)C.O=S(=O)([N-]S(=O)(=O)C(F)(F)F)C(F)(F)F, the activity coefficient (306.75 K) was 22.9 ± 1.6; the activity coefficient (312.98 K) is 22 ± 1.5; the activity coefficient (322.55 K) was determined as 20.4 ± 1.4; the activity coefficient (333.25 K) is 19 ± 1.3; the activity coefficient (343.65 K) came out at 17.2 ± 1.2; the activity coefficient (354.05 K) came to 16.2 ± 1.1. Besides, the activity coefficient (364.55 K) was found to be 15.1 ± 1.
Turning to `CCCCCCCC=O` [octanal] + CCCC[N+](C)(C)C.O=S(=O)([N-]S(=O)(=O)C(F)(F)F)C(F)(F)F, the activity coefficient reads like this: (364.64 K) 3.53 ± 0.24; (374.95 K) 3.48 ± 0.24; (385.45 K) 3.44 ± 0.23; (395.95 K) 3.37 ± 0.23.
With `CCCCCCCC` [octane] + CCCC[N+](C)(C)C.O=S(=O)([N-]S(=O)(=O)C(F)(F)F)C(F)(F)F, the activity coefficient reads like this: (301.62 K) 45.4 ± 3.1; (312.15 K) 41 ± 2.8; (322.75 K) 37.2 ± 2.5; (333.25 K) 34.1 ± 2.3.
Consider `CCCCCO` [pentan-1-ol] + CCCC[N+](C)(C)C.O=S(=O)([N-]S(=O)(=O)C(F)(F)F)C(F)(F)F, for which the activity coefficient is 3.85 ± 0.26 (322.85 K); 3.39 ± 0.23 (333.15 K); 3.01 ± 0.2 (343.65 K); 2.72 ± 0.19 (354.05 K); 2.45 ± 0.17 (364.45 K).
With `CCCCC=O` [pentanal] + CCCC[N+](C)(C)C.O=S(=O)([N-]S(=O)(=O)C(F)(F)F)C(F)(F)F, the activity coefficient (301.75 K) is 1.71 ± 0.11; the activity coefficient (312.25 K) worked out at 1.65 ± 0.11; the activity coefficient (322.75 K) is 1.62 ± 0.11; the activity coefficient (333.25 K) is 1.57 ± 0.1; the activity coefficient (343.55 K) stood at 1.5 ± 0.1; the activity coefficient (354.15 K) was 1.46 ± 0.1.
Regarding `CCCCC` [pentane] + CCCC[N+](C)(C)C.O=S(=O)([N-]S(=O)(=O)C(F)(F)F)C(F)(F)F, the activity coefficient (301.85 K) is 13.7 ± 0.93 and the activity coefficient (322.85 K) was found to be 13.9 ± 0.95.
For the compound `CCCCCc1ccccc1` [pentylbenzene] + CCCC[N+](C)(C)C.O=S(=O)([N-]S(=O)(=O)C(F)(F)F)C(F)(F)F, the activity coefficient stood at 7.92 ± 0.54 (354.05 K), 7.69 ± 0.52 (364.45 K), 7.36 ± 0.5 (374.95 K) and 7.07 ± 0.48 (385.45 K).
